Legend:
[1] = molecular target: T1, human glucocorticoid receptor (Homo sapiens, UniProt P04150); test: Glucocorticoid Receptor Binding Assay (I), fluorescence polarization competitor kit; settings: purified human recombinant full-length GR, Fluormone GS Red, 2 h room temperature
T1 construct: purified human recombinant full-length glucocorticoid receptor (2 nM); purchased Invitrogen Part #2893
T1 sequence (P04150 1-777): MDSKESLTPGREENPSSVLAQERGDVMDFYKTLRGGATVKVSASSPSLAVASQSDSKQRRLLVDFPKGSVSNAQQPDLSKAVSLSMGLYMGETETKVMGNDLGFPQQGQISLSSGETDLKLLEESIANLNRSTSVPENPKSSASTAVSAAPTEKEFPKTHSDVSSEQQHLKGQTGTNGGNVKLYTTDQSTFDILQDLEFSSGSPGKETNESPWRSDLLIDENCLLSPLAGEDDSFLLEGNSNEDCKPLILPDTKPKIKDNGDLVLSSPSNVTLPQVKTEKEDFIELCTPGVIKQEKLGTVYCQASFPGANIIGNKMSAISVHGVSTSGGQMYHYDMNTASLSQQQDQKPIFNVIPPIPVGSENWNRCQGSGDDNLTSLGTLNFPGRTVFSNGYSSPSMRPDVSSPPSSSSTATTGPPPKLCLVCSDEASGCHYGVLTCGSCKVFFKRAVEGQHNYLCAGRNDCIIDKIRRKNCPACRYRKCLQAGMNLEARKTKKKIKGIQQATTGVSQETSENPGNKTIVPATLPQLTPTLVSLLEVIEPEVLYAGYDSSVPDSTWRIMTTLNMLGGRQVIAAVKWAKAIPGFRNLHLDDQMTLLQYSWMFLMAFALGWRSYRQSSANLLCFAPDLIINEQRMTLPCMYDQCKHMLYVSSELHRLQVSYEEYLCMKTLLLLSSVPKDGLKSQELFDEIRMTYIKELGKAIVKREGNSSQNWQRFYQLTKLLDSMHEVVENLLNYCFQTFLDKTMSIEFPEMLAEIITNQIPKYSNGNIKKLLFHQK
Method: Briefly, purified human recombinant full-length glucocorticoid receptor (2 nM) was mixed with fluorescently labeled glucocorticoid (1 nM Fluormone GS Red) in the presence or absence of test compound. After two hours incubation at room temperature in the dark, the fluorescence polarization (FP) of the sample was measured. […] Test compounds were analyzed in the concentration range from 8.5E-05 μM to 5 μM.

[2] = system: AP-1 induced transcriptional activity; test: Cellular Transrepressional Assay (AP-1 luciferase reporter in A549 cells); type: cell-based; settings: Homo sapiens, A549 cells stably transfected with pAP-1-Luc, 10 ng/ml PMA, 7 hours; for Emax: maximum inhibition, read-out: AP-1 Max % inh (Cellular Transrepression Assay); for EC50: read-out: AP-1 EC50, nM (Cellular Transrepression Assay)
Method: To measure the ability of test molecules to inhibit AP-1 induced transcriptional activity we utilized an A549 cell which was stably transfected with a plasmid containing 7×AP-1 DNA binding sites (pAP-1-Luc plasmid, Stratagene Co. La Jolla, Calif.) followed by the gene for luciferase. Cells were activated with 10 ng/ml of phorbol myristic acid (PMA) plus or minus test molecules for 7 hours. After 7 hours a luciferase reagent was added to measure luciferase enzymatic activity in the cell. After a 10 minute incubation of luciferase reagent with cells, luminescence was measured in a TopCount luminescence counter. Repression of AP-1 activity was calculated as the percentage decrease in the signal induced by PMA alone. Test molecules were analyzed in the concentration range from 0.1 nM to 40 μM. EC50 values were determined by using standard curve fitting methods such as Excel fit (Microsoft Co.).

| Compound | Ki [1] [nM] | EC50 [2] [nM] | Emax [2] [%] |
| --- | --- | --- | --- |
| C[C@]12Cn3cnc(-c4ccccc4)c3C=C1CCC[C@@H]2[C@H](O)c1ccccc1 (racemic) [Example 12] | 86.3 | – | – |
| C[C@]12Cn3cnc(-c4ccccc4)c3C=C1CCC[C@@H]2[C@](C)(O)c1csc2ccccc12 (racemic) [Example 15] | – | 145 | 42.7 |
| COc1ccc([C@H](O)[C@H]2CCCC3=Cc4c(-c5ccccc5)ncn4C[C@@]32C)cc1 (racemic) [Example 16] | 90.1 | – | – |
| COc1ccc([C@@H](O)[C@H]2CCCC3=Cc4c(-c5ccccc5)ncn4C[C@@]32C)cc1 (racemic) [Example 17] | 93.4 | – | – |
| C=CC[C@H](O)[C@H]1CCCC2=Cc3c(-c4ccccc4)ncn3C[C@@]21C (racemic) [Example 18] | 26.9 | – | – |
| C=CC[C@@H](O)[C@H]1CCCC2=Cc3c(-c4ccccc4)ncn3C[C@@]21C (racemic) [Example 19] | 22.3 | – | – |
| C[C@]12Cn3cnc(-c4ccccc4)c3C=C1CCC[C@@H]2[C@](C)(O)c1csc2ccccc12 (single isomer, unassigned) [Example 31] | – | 181 | 41.2 |
| C[C@]12Cn3cnc(-c4ccc(F)cc4)c3C=C1CCC[C@@H]2[C@](C)(O)c1cccs1 [Example 1, (S)-1-((5aR,6S)-1-(4-Fluorophenyl)-5a-methyl-5,5a,6,7,8,9-hexahydroimidazo[1,5-b]isoquinolin-6-yl)-1-(thiophen-2-yl)ethanol] | – | 21.4 | 38.1 |
| CN(C)C(=O)c1ccc([C@@](C)(O)[C@H]2CCCC3=Cc4c(-c5ccc(F)cc5)ncn4C[C@@]32C)s1 [Example 3, 5-((S)-1-((5aR,6S)-1-(4-Fluorophenyl)-5a-methyl-5,5a,6,7,8,9-hexahydroimidazo[1,5-b]isoquinolin-6-yl)-1-hydroxyethyl)-N,N-dimethylthiophene-2-carboxamide] | – | 267 | 29.5 |
| C[C@]12Cn3cnc(-c4ccc(F)cc4)c3C=C1CCC[C@@H]2CCNc1nncs1 [Example 5, N-(2-((5aR,6R)-1-(4-Fluorophenyl)-5a-methyl-5,5a,6,7,8,9-hexahydroimidazo[1,5-b]isoquinolin-6-yl)ethyl)-1,3,4-thiadiazol-2-amine] | – | 98 | 22.6 |
| C[S+]([O-])c1cccc([C@@](C)(O)[C@H]2CCCC3=Cc4c(-c5ccc(F)cc5)ncn4C[C@@]32C)c1 (stereo partly drawn) [Example 8b, (1S)-1-((5aR,6S)-1-(4-fluorophenyl)-5a-methyl-5,5a,6,7,8,9-hexahydroimidazo[1,5-b]isoquinolin-6-yl)-1-(3-(methylsulfinyl)phenyl)ethanol] | – | 236 | 40.7 |
| CC(C)(O)c1cccc([C@@](C)(O)[C@H]2CCCC3=Cc4c(-c5ccc(F)cc5)ncn4C[C@@]32C)c1 [Example 9, 2-(3-((S)-1-((5aR,6S)-1-(4-Fluorophenyl)-5a-methyl-5,5a,6,7,8,9-hexahydroimidazo[1,5-b]isoquinolin-6-yl)-1-hydroxyethyl)phenyl)propan-2-ol] | – | 144 | 34.3 |
| C[C@]12Cn3cnc(-c4ccc(F)cc4)c3C=C1CCC[C@@H]2[C@](C)(O)C(F)(F)F [Example 10, (S)-1,1,1-Trifluoro-2-((5aR,6S)-1-(4-fluorophenyl)-5a-methyl-5,5a,6,7,8,9-hexahydroimidazo[1,5-b]isoquinolin-6-yl)propan-2-ol] | – | 30.9 | 31.3 |
| C[C@]12Cn3cnc(-c4ccc(F)cc4)c3C=C1CCC[C@@H]2[C@](C)(O)c1ccc(F)cc1 [Example 48] | – | 11.9 | 35.6 |
| C[C@]12Cn3cnc(-c4ccc(F)cc4)c3C=C1CCC[C@@H]2[C@](C)(O)c1ccc(Cl)cc1 [Example 53] | – | 63.2 | 44.6 |
| C[C@]12Cn3cnc(-c4ccc(F)cc4)c3C=C1CCC[C@@H]2[C@](C)(O)c1ccsc1 [Example 54] | – | 4.67 | 42.7 |
| C[C@]12Cn3cnc(-c4ccc(F)cc4)c3C=C1CCC[C@@H]2[C@](C)(O)Cc1ccc(F)cc1 [Example 55] | – | 84.2 | 53.7 |
| C[C@]12Cn3cnc(-c4ccc(F)cc4)c3C=C1CCC[C@@H]2[C@](C)(O)c1ccc(F)c(Cl)c1 [Example 56] | – | 19.3 | 39.6 |
| C=CC[C@@](C)(O)[C@H]1CCCC2=Cc3c(-c4ccc(F)cc4)ncn3C[C@@]21C [Example 57] | – | 56.6 | 55.9 |
| C[C@]12Cn3cnc(-c4ccc(F)cc4)c3C=C1CCC[C@@H]2[C@](C)(O)C1CC1 [Example 58] | – | 36.8 | 35.8 |
| Cc1ccc([C@@](C)(O)[C@H]2CCCC3=Cc4c(-c5ccc(F)cc5)ncn4C[C@@]32C)s1 [Example 60] | – | 31.3 | 48.3 |

More lines, main results first:

| Ki [1] [nM] | EC50 [2] [nM] | Compound | Emax [2] [%] |
| --- | --- | --- | --- |
| – | 11.6 | Cc1ccsc1[C@@](C)(O)[C@H]1CCCC2=Cc3c(-c4ccc(F)cc4)ncn3C[C@@]21C [Example 61] | 58.8 |
| – | 5.48 | C[C@]12Cn3cnc(-c4ccc(F)cc4)c3C=C1CCC[C@@H]2[C@](C)(O)c1ccc(Cl)s1 [Example 62] | 61.2 |
| – | 31.5 | CC(C)(C)C[C@@](C)(O)[C@H]1CCCC2=Cc3c(-c4ccc(F)cc4)ncn3C[C@@]21C [Example 63] | 47.5 |
| – | 4.26 | Cc1ccc([C@@](C)(O)[C@H]2CCCC3=Cc4c(-c5ccc(F)cc5)ncn4C[C@@]32C)cc1 [Example 64] | 41.9 |
| – | 9.75 | Cc1cccc([C@@](C)(O)[C@H]2CCCC3=Cc4c(-c5ccc(F)cc5)ncn4C[C@@]32C)c1 [Example 65] | 46.7 |
| – | 4.6 | Cc1ccccc1[C@@](C)(O)[C@H]1CCCC2=Cc3c(-c4ccc(F)cc4)ncn3C[C@@]21C [Example 66] | 42.1 |
| – | 1.99 | C[C@]12Cn3cnc(-c4ccc(F)cc4)c3C=C1CCC[C@@H]2[C@](C)(O)C1CCCCC1 [Example 67] | 44.3 |
| – | 33.9 | CCCC[C@@](C)(O)[C@H]1CCCC2=Cc3c(-c4ccc(F)cc4)ncn3C[C@@]21C [Example 68] | 40.8 |
| – | 3.02 | C[C@]12Cn3cnc(-c4ccc(F)cc4)c3C=C1CCC[C@@H]2[C@](C)(O)c1ccccc1 [Example 71] | 32.5 |
| – | 14.3 | Cc1ccc([C@@](C)(O)[C@H]2CCCC3=Cc4c(-c5ccc(F)cc5)ncn4C[C@@]32C)cc1F [Example 74] | 34.5 |
| – | 41.6 | CCc1ccccc1[C@@](C)(O)[C@H]1CCCC2=Cc3c(-c4ccc(F)cc4)ncn3C[C@@]21C [Example 75] | 47.1 |
| – | 19.2 | C[C@]12Cn3cnc(-c4ccc(F)cc4)c3C=C1CCC[C@@H]2[C@](C)(O)c1cccc(C#N)c1 [Example 83] | 35.6 |
| – | 20.8 | CSc1cccc([C@@](C)(O)[C@H]2CCCC3=Cc4c(-c5ccc(F)cc5)ncn4C[C@@]32C)c1 [Example 89] | 45.3 |
| – | 24.7 | COC(=O)c1ccc([C@@](C)(O)[C@H]2CCCC3=Cc4c(-c5ccc(F)cc5)ncn4C[C@@]32C)s1 [Example 92] | 47.4 |
| – | 56.5 | C[C@]12Cn3cnc(-c4ccc(F)cc4)c3C=C1CCC[C@@H]2[C@](C)(O)C1CCOCC1 [Example 96] | 42 |
| – | 95 | COc1cccc([C@@](C)(O)[C@H]2CCCC3=Cc4c(-c5ccc(F)cc5)ncn4C[C@@]32C)c1 [Example 97] | 39.6 |
| – | 472 | C[C@]12Cn3cnc(-c4ccc(F)cc4)c3C=C1CCC[C@@H]2[C@](C)(O)c1ccc(C(=O)O)s1 [Example 99] | 43.9 |
| – | 573 | CNC(=O)c1ccc([C@@](C)(O)[C@H]2CCCC3=Cc4c(-c5ccc(F)cc5)ncn4C[C@@]32C)s1 [Example 100] | 30.7 |
| – | 877 | CC1(C)COC2(CCCC3=Cc4c(-c5ccc(F)cc5)ncn4CC32C)OC1 (stereo not drawn) [Example 104, 1′-(4-Fluorophenyl)-5,5,5a′-trimethyl-5a′,7′,8′,9′-tetrahydro-5′H-spiro[[1,3]dioxane-2,6′-imidazo[1,5-b]isoquinoline]] | 32.4 |

— patent publication US8309730B2, “Nonsteroidal compounds useful as modulators of glucocorticoid receptor AP-1 and/or NF-kappab acitivity and use thereof” (Bristol-Myers Squibb Company, priority 2007, dated 2012)
